# In patent publication US20110070232A1, “Combination Therapy with an Antitumor Alkaloid” (Pharma Mar, S.A., priority 2008, published 2011):
# Read-outs that look alike come from different tables or passages of the source.
# Experiments:
# [1] = tested on: HCT-116 (colon cancer) cell line; assay: IC50 determination, MIT (tetrazolium) assay, 72 h (Example 18); assay type: cell-based, human; conditions: HCT-116, 72 hours of drug exposure
# Description: HCT-116 cells were grown in McCoy's supplemented with 10% Fetal Bovine Serum (FBS), 1% penicillin/streptomycin and 2 mM L-glutamine.
# (§1) Before plating, cell cultures were trypsinized and cell number estimated using an automated flow cytometer.
# (§2) Cells were harvested and seeded in 96 well microtiter plates at the appropriate cell density (5,000-10,000 cells) in 150 μL of media and incubated for 24 hours to allow the cells to attach before drug addition.
# (§3) After the incubation period (72 hours), 50 μL of MIT solution was added to each microtiter well and incubated for further 8 hours at 37° C. The culture medium was then removed and 50 μl, of DMSO were added to dissolve the MIT crystals. Optical densities were read at 540 nm on spectrophotometer microplate reader.
# (§4) IC50 values were calculated from an average of two to four assays for each of the test agents.
# [2] = tested on: Hs746T tumors; assay type: in vivo, mice; conditions: for % T/C on day 14 / % T/C on day 19 / % T/C on day 22 / % T/C on day 26 / % T/C on day 29 / % T/C on day 32 / % T/C on day 39: PM00104 0.90 IV, DPI 14, 21, 28
# Description: Female athymic nude mice (Harlan Sprague Dawley, Madison, Wis.) were utilized for all experiments. Animals were housed in ventilated rack caging with food and water ad libitum. The mice were acclimated for at least 5 days prior to tumor implantation with a tumor cell suspension.
# The tumor model used in these studies was Hs746T cell line, which was obtained from the ATCC (Manassas, Va.).
# Treatments were initiated on DPI 14.
# (§5) Tumor size measurements were recorded twice weekly from the treatment initiation until the termination of the study.
# (§6) Mean, standard deviation and standard error of the mean were determined for tumor volume for all animal groups at all assessments. Student's t test was performed on tumor volumes at each measurement day, including at the end of the study, to determine whether there were any statistically significant differences between combination treatment groups and single monotherapy treatment groups.
# [3] = tested on: MRI-H-254 tumors; assay type: in vivo, mice
# Description: Female athymic nude mice (Harlan Sprague Dawley, Madison, Wis.) were utilized for all experiments. Animals were housed in ventilated rack caging with food and water ad libitum. The mice were acclimated for at least 5 days prior to tumor implantation with tumor fragments.
# Treatments were initiated on DPI 20.
# as §5, §6
# [4] = tested on: LoVo (colon cancer) cell line; assay: IC50 determination, MIT (tetrazolium) assay, 72 h (Example 18); assay type: cell-based, human; conditions: 72 hours of drug exposure
# Description: as §1, §2, §3, §4
# [5] = tested on: HT-29 (colon cancer) cell line; assay: as above; assay type: cell-based, human; conditions: HT-29, 72 hours of drug exposure
# Description: as §1, §2, §3, §4
# [6] = tested on: AGS human gastric carcinoma cell line; assay: IC50 determination, MTS assay, 72 h (Example 1); assay type: cell-based; conditions: 72 hours of drug exposure
# Method in brief: (§7)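 Cells are seeded at 10,000 per well and allowed to attach for 24 h, then exposed to compound for 72 h. Viability is read by MTS/PMS, 4 h at 37 °C, with OD at 490 nm, and referenced to a time-0 plate. IC50 is averaged from two to four assays.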
# [7] = tested on: HGC-27 human gastric carcinoma cell line; assay: IC50 determination, MTS assay, 72 h (Example 1); assay type: cell-based; conditions: 72 hours of drug exposure
# Method in brief: as §7
# [8] = tested on: Hs746T human gastric carcinoma cell line; assay: IC50 determination, MTS assay, 72 h (Example 1); assay type: cell-based; conditions: 72 hours of drug exposure
# Method in brief: as §7
# [9] = docetaxel 8 IP, oxaliplatin 4 IP mg/kg/day (G4, G6, G8, G10)
# [10] = docetaxel 16 IP, oxaliplatin 8 IP mg/kg/day (G2, G3, G5, G7, G9)
# [11] = PM00104 0.90 IV, docetaxel 8 IP, oxaliplatin 4 IP mg/kg/day (G4, G6, G8, G10), DPI 20, 27, 34
# [12] = PM00104 0.90 IV, docetaxel 16 IP, oxaliplatin 8 IP mg/kg/day (G2, G3, G5, G7, G9), DPI 20, 27, 34
compound,measurement,setting,value
"O=C1[O][Pt]2([NH][C@@H]3CCCC[C@H]3[NH]2)[O]C1=O [Oxaliplatin, oxaliplatin]",IC50,[1],140 µM
same,% T/C on day 14,[2]; [9],99.9%
same,% T/C on day 19,[2]; [9],79.9%
same,% T/C on day 22,[2]; [9],83.8%
same,% T/C on day 26,[2]; [9],78.6%
same,% T/C on day 29,[2]; [9],84.2%
same,% T/C on day 32,[2]; [9],87.5%
same,% T/C on day 39,[2]; [9],108.4%
same,% T/C on day 14,[2]; [10],99.6%
same,% T/C on day 19,[2]; [10],83.5%
same,% T/C on day 22,[2]; [10],84.9%
same,% T/C on day 26,[2]; [10],89.1%
same,% T/C on day 29,[2]; [10],84.5%
same,% T/C on day 32,[2]; [10],91.2%
same,% T/C on day 39,[2]; [10],102.9%
same,% Inhibition,"[2]; day 14, PM00104 0.9 and oxaliplatin 4 mg/kg/day",0.1%
same,% Inhibition,"[2]; day 14, PM00104 0.9 and oxaliplatin 8 mg/kg/day",0.4%
same,% Inhibition,"[2]; day 19, PM00104 0.9 and oxaliplatin 4 mg/kg/day",20.1%
same,% Inhibition,"[2]; day 19, PM00104 0.9 and oxaliplatin 8 mg/kg/day",16.5%
same,% Inhibition,"[2]; day 22, PM00104 0.9 and oxaliplatin 4 mg/kg/day",16.2%
same,% Inhibition,"[2]; day 22, PM00104 0.9 and oxaliplatin 8 mg/kg/day",15.1%
same,% Inhibition,"[2]; day 26, PM00104 0.9 and oxaliplatin 4 mg/kg/day",21.4%
same,% Inhibition,"[2]; day 26, PM00104 0.9 and oxaliplatin 8 mg/kg/day",10.9%
same,% Inhibition,"[2]; day 29, PM00104 0.9 and oxaliplatin 4 mg/kg/day",15.8%
same,% Inhibition,"[2]; day 29, PM00104 0.9 and oxaliplatin 8 mg/kg/day",15.5%
same,% Inhibition,"[2]; day 32, PM00104 0.9 and oxaliplatin 4 mg/kg/day",12.5%
same,% Inhibition,"[2]; day 32, PM00104 0.9 and oxaliplatin 8 mg/kg/day",8.8%
same,% Inhibition,"[2]; day 39, PM00104 0.9 and oxaliplatin 4 mg/kg/day",−8.4%
same,% Inhibition,"[2]; day 39, PM00104 0.9 and oxaliplatin 8 mg/kg/day",−2.9%
same,% T/C on day 20,[3]; [11],94.5%
same,% T/C on day 23,[3]; [11],118.5%
same,% T/C on day 27,[3]; [11],113.6%
same,% T/C on day 33,[3]; [11],107.6%
same,% T/C on day 36,[3]; [11],115.1%
same,% T/C on day 40,[3]; [11],115.0%
same,% T/C on day 48,[3]; [11],92.4%
same,% T/C on day 20,[3]; [12],95.1%
same,% T/C on day 23,[3]; [12],100.9%
same,% T/C on day 27,[3]; [12],77.2%
same,% T/C on day 30,[3]; [12],81.7%
same,% T/C on day 33,[3]; [12],75.0%
same,% T/C on day 36,[3]; [12],71.1%
same,% T/C on day 40,[3]; [12],67.5%
same,% T/C on day 48,[3]; [12],55.9%
same,% Inhibition,"[3]; day 20, PM00104 0.9 and oxaliplatin 4 mg/kg/day",5.5%
same,% Inhibition,"[3]; day 20, PM00104 0.9 and oxaliplatin 8 mg/kg/day",4.9%
same,% Inhibition,"[3]; day 23, PM00104 0.9 and oxaliplatin 4 mg/kg/day",−18.5%
same,% Inhibition,"[3]; day 23, PM00104 0.9 and oxaliplatin 8 mg/kg/day",−0.9%
same,% Inhibition,"[3]; day 27, PM00104 0.9 and oxaliplatin 4 mg/kg/day",−13.6%
same,% Inhibition,"[3]; day 27, PM00104 0.9 and oxaliplatin 8 mg/kg/day",22.8%
same,% Inhibition,"[3]; day 30, PM00104 0.9 and oxaliplatin 4 mg/kg/day",−17.1%
same,% Inhibition,"[3]; day 30, PM00104 0.9 and oxaliplatin 8 mg/kg/day",18.3%
same,% Inhibition,"[3]; day 33, PM00104 0.9 and oxaliplatin 4 mg/kg/day",−7.6%
same,% Inhibition,"[3]; day 33, PM00104 0.9 and oxaliplatin 8 mg/kg/day",25.0%
same,% Inhibition,"[3]; day 36, PM00104 0.9 and oxaliplatin 4 mg/kg/day",−15.1%
same,% Inhibition,"[3]; day 36, PM00104 0.9 and oxaliplatin 8 mg/kg/day",28.9%
same,% Inhibition,"[3]; day 40, PM00104 0.9 and oxaliplatin 4 mg/kg/day",−15.0%
same,% Inhibition,"[3]; day 40, PM00104 0.9 and oxaliplatin 8 mg/kg/day",32.5%
same,% Inhibition,"[3]; day 48, PM00104 0.9 and oxaliplatin 4 mg/kg/day",7.6%
same,% Inhibition,"[3]; day 48, PM00104 0.9 and oxaliplatin 8 mg/kg/day",44.1%
same,IC50,[4],3.2 µM
same,IC50,[5],38 µM
same,IC50,[6],0.289 µg/mL
same,IC50,[7],0.192 µg/mL
same,IC50,[8],8.14 µg/mL
